Results on four compounds are retold here after US6841530B2, “Semi-synthetic studies toward didemnin analogues” (The Board of Trustees of the University of Illinois, priority 1996, dated 2005).

One data set relates to CV-1. In words: Cytotoxicity score in the HSV/CV-1 antiviral assay. Particulars: scale 0 (least toxic) to 16 (toxic).
Data set [1] in a line: Cytotoxicity of didemnins (Table II). In kind it is cell-based. Particulars: for IC50: cytotoxicity.
The next data set concerns HSV. In words: Antiviral activities of didemnins, HSV/CV-1. On the set-up: key: +++ = complete inhibition; ++ = strong inhibition; + = moderate inhibition; − = no inhibition. In kind it is cell-based.
The next data set relates to P388 Murine Leukemia. In words: Life extension vs. P388 murine leukemia in mice. The class given is in vivo.

Values after ≈ are worked out from the molar mass of the structure shown. Starred links: 1 amine or outer side, 2 acyl side, 3 side chain; linkers in the order of their positions; H or OH if unused. Positions of bridges follow the written chain, without caps; N, C: chain ends. Non-standard residues stand in square brackets, D forms with d. Residues, ends and D or L forms follow the SMILES beside them. X1 = CC[C@H](C)[C@@H](N[*:1])[C@@H](O)CC(=O)O[C@H](C(=O)[C@H](C)C(=O)[*:2])C(C)C; NMeY = CN[C@@H](Cc1ccc(O)cc1)C(=O)O; dNMeL = CN[C@H](CC(C)C)C(=O)O; pGlu = O=C1CC[C@@H](C(=O)O)N1; Lac = C[C@H](O)C(=O)O

What is called IC50 is the concentration at which inhibition is half-maximal. For the compound `CC[C@H](C)[C@H]1NC(=O)[C@@H](NC(=O)[C@@H](CC(C)C)N(C)C(=O)[C@@H]2CCCN2C(=O)[C@H](C)OC(=O)[C@H](CCC(N)=O)NC(=O)[C@@H]2CCC(=O)N2)[C@@H](C)OC(=O)[C@H](Cc2ccc(OC)cc2)N(C)C(=O)[C@@H]2CCCN2C(=O)[C@H](CC(C)C)NC(=O)[C@@H](C)C(=O)[C@H](C(C)C)OC(=O)C[C@@H]1O` [Didemnin M (5), L-Pyroglutaminyl-L-glutaminyl-didemnin B] ([pGlu]Q[Lac]P[dNMeL]T[X1]LP[NMeY](Me); ester 6-C), the Cytotoxocity in the data set with CV-1 (10 ng/mL) was 0; in the data set on CV-1 (20 ng/mL), 0; in the data set on CV-1 (50 ng/mL), 16; in the data set on CV-1 (100 ng/mL), 16. Besides, the “Inhibition (%)” value in data set [1] (Dose 0.25 ng/mL) was 94%; in data set [1] (Dose 2.5 ng/mL), 100%; in data set [1] (Dose 25 ng/mL) it was 100%; in data set [1] (Dose 250 ng/mL), 100%. In addition, in data set [1], the IC50 is reported as 0.8 ng/mL (≈ 0.592 nM). For the same compound, the Activity entry in the data set with HSV (10 ng/mL) is given as “+”; with HSV (20 ng/mL) it was “+++”.

With `CC[C@H](C)[C@H]1NC(=O)[C@@H](NC(=O)[C@@H](CC(C)C)N(C)C(=O)[C@@H]2CCCN2C(=O)[C@H](C)OC(=O)[C@@H](N)CCC(N)=O)[C@@H](C)OC(=O)[C@H](Cc2ccc(OC)cc2)N(C)C(=O)[C@@H]2CCCN2C(=O)[C@H](CC(C)C)NC(=O)[C@@H](C)C(=O)[C@H](C(C)C)OC(=O)C[C@@H]1O` [Gln-Didemnin B, Glutaminyl-didemnin B] (H-Q[Lac]P[dNMeL]T[X1]LP[NMeY](Me); ester 5-C), the Cytotoxocity is on record as 0 in the data set on CV-1 (10 ng/mL), 16 in the data set on CV-1 (20 ng/mL), 16 in the data set on CV-1 (50 ng/mL) and 16 with CV-1 (100 ng/mL). For the same compound, the “Inhibition (%)” value in data set [1] (Dose 0.25 ng/mL) is listed as 94%; in data set [1] (Dose 2.5 ng/mL) it was 100%; in data set [1] (Dose 25 ng/mL), 100%; in data set [1] (Dose 250 ng/mL), 100%. Besides, the IC50 in data set [1] was determined as 0.1 ng/mL (≈ 0.0806 nM). Also, the Activity entry in the data set on HSV (10 ng/mL) is given as “+++”. In addition, the results for the “T/C (% of Control, Life Extension)” value in the data set on P388 Murine Leukemia (Dose 0.025 mg/kg), in the data set with P388 Murine Leukemia (Dose 0.05 mg/kg) and with P388 Murine Leukemia (Dose 1 mg/kg) were 152 % of Control, 171 % of Control and 185 % of Control, respectively.

Regarding `CC[C@H](C)[C@H]1NC(=O)[C@@H](NC(=O)[C@@H](CC(C)C)N(C)C(=O)[C@@H]2CCCN2C(=O)[C@H](C)OC(=O)[C@@H](N)CCC(N)=O)[C@@H](C)OC(=O)[C@H](Cc2ccc(OC)cc2)N(C)C(=O)[C@@H]2CCCN2C(=O)[C@H](CC(C)C)NC(=O)[C@@H](C)C(=O)[C@H](C(C)C)OC(=O)C[C@@H]1OC(=O)[C@@H](N)CCC(N)=O` [Gln[GlnIst^2]-Didemnin B (160), Glutaminyl-glutaminyl-didemnin B], the Cytotoxocity in the data set on CV-1 (10 ng/mL), in the data set with CV-1 (20 ng/mL), in the data set with CV-1 (50 ng/mL) and in the data set with CV-1 (100 ng/mL) was 0 each time. For the same compound, the “Inhibition (%)” value in data set [1] (Dose 0.25 ng/mL) turned out to be 0%; in data set [1] (Dose 2.5 ng/mL) it was 0%; in data set [1] (Dose 25 ng/mL) it was 87%; in data set [1] (Dose 250 ng/mL), 100%. In data set [1], this compound yielded an IC50 of 50 ng/mL (≈ 36.5 nM). Besides, the Activity result is on record as “+” in the data set on HSV (10 ng/mL), “+” with HSV (20 ng/mL), “+” with HSV (50 ng/mL) and “+++” in the data set on HSV (100 ng/mL).

As for `CC[C@H](C)[C@H]1NC(=O)[C@@H](NC(=O)[C@@H](CC(C)C)N(C)C(=O)[C@@H]2CCCN2C(=O)[C@H](C)OC(=O)[C@@H]2CCC(=O)N2)[C@@H](C)OC(=O)[C@H](Cc2ccc(OC)cc2)N(C)C(=O)[C@@H]2CCCN2C(=O)[C@H](CC(C)C)NC(=O)[C@@H](C)C(=O)[C@H](C(C)C)OC(=O)C[C@@H]1O` [pGlu-Didemnin B (39), L-Pyroglutaminyl-didemnin B] ([pGlu][Lac]P[dNMeL]T[X1]LP[NMeY](Me); ester 5-C), the Cytotoxocity with CV-1 (10 ng/mL) was 0; with CV-1 (20 ng/mL), 0; in the data set with CV-1 (50 ng/mL), 16; with CV-1 (100 ng/mL), 16. Moreover, the “Inhibition (%)” value in data set [1] (Dose 0.25 ng/mL) stood at 94%; in data set [1] (Dose 2.5 ng/mL) it was 100%; in data set [1] (Dose 25 ng/mL), 100%; in data set [1] (Dose 250 ng/mL), 100%. Besides, in data set [1], the IC50 amounted to 0.1 ng/mL (≈ 0.0817 nM). The Activity result in the data set with HSV (10 ng/mL) is reported as “+”; with HSV (20 ng/mL), “+++”.
